Measured values taken from patent publication US20230041738A1, “1H-PYRAZOLO[4,3-d]PYRIMIDINE COMPOUNDS AS TOLL-LIKE RECEPTOR 7 (TLR7) AGONISTS” (BRISTOL-MYERS SQUIBB COMPANY, priority 2020, published 2023).

Columns and labels:
CD69 = test: Induction of CD69 in human whole blood (hWB); format: cell-based; settings: 17 hrs at 37 C, CD69 surface staining, 100% set to 1 uM resiquimod, average where performed multiple times
Protocol: The induction of Type I interferon (IFN) MX-1 genes and the B-cell activation marker CD69 are downstream events that occur upon activation of the TLR7 pathway. The following is a human whole blood assay that measures their induction in response to a TLR7 agonist.
Heparinized human whole blood was harvested from human subjects and treated with test TLR7 agonist compounds at 1 mM. The blood was diluted with RPMI 1640 media and Echo was used to predot 10 nL per well giving a final concentration of 1 uM (10 nL in 10 uL of blood). After mixing on a shaker for 30 sec, the plates were covered and placed in a 37° C. chamber for o/n=17 hrs. Fixing/lysis buffer was prepared (5×→1× in H2O, warm at 37° C.; Cat #BD 558049) and kept the perm buffer (on ice) for later use.
For surface markers staining (CD69): prepared surface Abs: 0.045 ul hCD14-FITC (ThermoFisher Cat #MHCD1401)+0.6 ul hCD19-ef450 (ThermoFisher Cat #48-0198-42)+1.5 ul hCD69-PE (cat #BD555531)+0.855 ul FACS buffer. Added 3 ul/well, spin1000 rpm for 1 min and mixed on shaker for 30 sec, put on ice for 30 mins. Stop stimulation after 30 min with 70 uL of prewarmed 1× fix/lysis buffer and use Feliex mate to resuspend (15 times, change tips for each plate) and incubate at 37C for 10 min.
Centrifuge at 2000 rpm for 5 min aspirate with HCS plate washer, mix on shaker for 30 sec and then wash with 70 uL in dPBS and pelleted 2× s (2000 rpm for 5 min) and 50 ul wash in FACS buffer pelleted 1×s(2000 rpm for 5 min). Mix on shaker for 30 sec. For Intracellular markers staining (MX-1): Add 50 ul of BD Perm buffer III and mix on shaker for 30 sec. Incubate on ice for 30 min (in the dark). Wash with 50 uL of FACS buffer 2× (spin @2300 rpm×5 min after perm) followed by mixing on shaker for 30 sec. Resuspended in 20 ul of FACS buffer containing MX1 antibody ( )(4812)-Alexa 647: Novus Biologicals #NBP2-43704AF647) 20 ul FACS bf+0.8 ul hlgG+0.04 ul MX-1. Spin 1000 rpm for 1 min, mix on shaker for 30se and the samples were incubated at RT in the dark for 45 min followed by washing 2× FACS buffer (spin @2300 rpm×5 min after perm). Resuspend 20 ul (35 uL total per well) of FACS buffer and cover with foil and place in 4° C. to read the following day. Plates were read on iQuePlus. The results were loaded into toolset and IC50 curves are generated in curve master. The y-axis 100% is set to 1 uM of resiquimod.

human TLR7 = molecular target: T1, human TLR7 (Homo sapiens, UniProt Q9NYK1); test: Human TLR7 agonist activity assay (hTLR7 reporter, HEK-Blue TLR7 cells, SEAP); format: cell-based; settings: HEK-Blue TLR7 cells with SEAP reporter, 18 h treatment; average where assay performed multiple times
T1 construct: host or cells: HEK-Blue TLR7 cells (engineered human embryonic kidney cells)
T1 sequence (Q9NYK1 27-1049): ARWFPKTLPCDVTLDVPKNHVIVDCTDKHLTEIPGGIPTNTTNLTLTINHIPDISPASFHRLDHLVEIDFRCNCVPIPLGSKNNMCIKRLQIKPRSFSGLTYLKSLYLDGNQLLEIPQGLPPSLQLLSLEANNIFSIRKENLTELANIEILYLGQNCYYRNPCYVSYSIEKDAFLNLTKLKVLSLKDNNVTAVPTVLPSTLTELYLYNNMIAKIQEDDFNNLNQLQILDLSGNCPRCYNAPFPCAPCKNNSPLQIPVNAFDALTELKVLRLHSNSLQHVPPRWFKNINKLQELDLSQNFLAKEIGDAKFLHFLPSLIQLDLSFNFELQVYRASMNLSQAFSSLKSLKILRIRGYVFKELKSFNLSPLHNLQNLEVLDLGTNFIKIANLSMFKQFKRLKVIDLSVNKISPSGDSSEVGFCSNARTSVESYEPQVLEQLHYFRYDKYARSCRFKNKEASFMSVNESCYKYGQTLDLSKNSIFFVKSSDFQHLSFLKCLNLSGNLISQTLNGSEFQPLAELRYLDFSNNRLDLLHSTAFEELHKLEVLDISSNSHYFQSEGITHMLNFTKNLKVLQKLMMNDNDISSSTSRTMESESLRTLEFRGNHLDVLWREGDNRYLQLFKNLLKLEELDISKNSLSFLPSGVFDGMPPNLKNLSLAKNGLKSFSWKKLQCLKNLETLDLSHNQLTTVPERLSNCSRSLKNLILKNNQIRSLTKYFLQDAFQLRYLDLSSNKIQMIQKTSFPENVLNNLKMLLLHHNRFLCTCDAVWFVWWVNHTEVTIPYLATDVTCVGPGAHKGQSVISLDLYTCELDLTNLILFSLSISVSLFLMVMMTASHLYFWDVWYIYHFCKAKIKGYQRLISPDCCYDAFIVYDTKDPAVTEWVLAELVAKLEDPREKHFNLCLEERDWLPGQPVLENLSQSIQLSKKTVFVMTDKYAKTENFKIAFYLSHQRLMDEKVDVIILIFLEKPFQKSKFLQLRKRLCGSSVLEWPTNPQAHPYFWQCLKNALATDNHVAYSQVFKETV
Protocol: This procedure describes a method for assaying human TLR7 (hTLR7) agonist activity of the compounds disclosed in this specification.
HEK-Blue™ TLR7 cells were added to each well of a 384-well tissue-culture plate (15,000 cells per well) and incubated 16-18 h at 37° C., 5% CO2. Compounds (100 nl) were dispensed into wells containing the HEK-Blue™ TLR cells and the treated cells were incubated at 37° C., 5% CO2. After 18 h treatment ten microliters of freshly-prepared Quanti-Blue™ reagent (Invivogen) was added to each well, incubated for 30 min (37° C., 5% CO2) and SEAP levels measured using an Envision plate reader (OD=620 nm). The half maximal effective concentration values (EC50; compound concentration which induced a response halfway between the assay baseline and maximum) were calculated.

Row | Compound | EC50 (CD69) [µM] | EC50 (human TLR7) [µM]
1 | CCC[C@@H](CCO)Nc1nc(N)nc2cnn(Cc3cnc(CN4C[C@H]5CN(C)C[C@H]5C4)cc3OC)c12 [Compound 132, (3S)-3-({1-[(6-{[(3aR,6aS)-5-methyl-octahydropyrrolo[3,4-c]pyrrol-2-yl]methyl}-4-methoxypyridin-3-yl)methyl]-5-amino-1H-pyrazolo [4,3-d]pyrimidin-7-yl}amino)hexan-1-ol] | 0.0022 | 0.0659
2 | CCC[C@@H](CCO)Nc1nc(N)nc2cnn(Cc3ncc(CN4C[C@@H]5C[C@H]4CN5CCO)cc3OC)c12 [Compound 135, (3S)-3-({5-amino-1-[(5-{[(1S,4S)-5-(2-hydroxyethyl)-2,5-diaza-bicyclo[2.2.1]heptan-2-yl]methyl}-3-methoxypyridin-2-yl)methyl]-1H-pyrazolo[4,3-d]pyrimidin-7-yl}amino)hexan-1-ol] | 0.0122 | 0.297
3 | CCCCNc1nc(N)nc2cnn(Cc3ccc(CN4C[C@H]5CNC[C@H]5C4)cc3OC)c12 [Compound 136, 1-[(4-{[(3aR,6aS)-octahydro-pyrrolo[3,4-c]pyrrol-2-yl]methyl}-2-methoxyphenyl)methyl]-N7-butyl-1H-pyrazolo[4,3-d]pyrimidine-5,7-diamine] | 0.0013 | 0.0622
4 | CCC[C@@H](CCO)Nc1nc(N)nc2cnn(Cc3ncc(CN4C[C@H]5C[C@@H]4CN5CCO)cc3OC)c12 [Compound 138, (3S)-3-({5-amino-1-[(5-{[(1R,4R)-5-(2-hydroxyethyl)-2,5-diaza-bicyclo[2.2.1]heptan-2-yl]methyl}-3-methoxypyridin-2-yl)methyl]-1H-pyrazolo[4,3-d]pyrimidin-7-yl}amino)hexan-1-ol] | 0.003 | 0.278
5 | CCC[C@@H](CCO)Nc1nc(N)nc2cnn(Cc3cnc(CN4C[C@H]5C[C@@H]4CN5CCO)cc3OC)c12 [Compound 140] | 0.0316 | 0.716
6 | CCCCNc1nc(N)nc2cnn(Cc3ccc(CN4C[C@H]5CNC[C@H]5C4)cc3OC)c12 [Compound 143, 1-[(4-{[(3aR/6aS)-octahydropyrrolo [3,4-c]pyrrol-2-yl]methyl}-2-methoxyphenyl)methyl]-N7-butyl-1H-pyrazolo[4,3-d]pyrimidine-5,7-diamine] | 0.00129 | 0.0622

Further compounds by falling EC50 (CD69), results first:

Row | EC50 (CD69) [µM] | EC50 (human TLR7) [µM] | Compound
7 | 0.0743 | 0.135 | COc1cc(CN2C[C@@H]3C[C@H]2CN3C)ccc1Cn1ncc2nc(N)nc(NCc3noc(C)n3)c21 [Compound 130, 1-[(2-methoxy-4-{[(1S,4S)-5-methyl-2,5-diazabicyclo[2.2.1]-heptan-2-yl]methyl}phenyl)methyl]-N7-[(5-methyl-1,2,4-oxa-diazol-3-yl)methyl]-1H-pyrazolo[4,3-d]pyrimidine-5,7-diamine]
8 | 0.0224 | 0.354 | CCC[C@@H](CCO)Nc1nc(N)nc2cnn(Cc3cnc(CN4C[C@@H]5C[C@H]4CN5)cc3OC)c12 [Compound 134, (3S)-3-({5-amino-1-[(6-{[(1S,4S)-2,5-diazabicyclo[2.2.1]heptan-2-yl]methyl}-4-methoxypyridin-3-yl)methyl]-1H-pyrazolo[4,3-d]pyrimidin-7-yl}amino)hexan-1-ol]
9 | 0.0132 | 0.576 | COc1cc(CN2C[C@H]3C[C@@H]2CN3C)ccc1Cn1ncc2nc(N)nc(N[C@H](CO)CC3CC3)c21 [Compound 137, (2S)-2-({5-amino-1-[(2-methoxy-4-{[(1R,4R)-5-methyl-2,5-diaza-bicyclo[2.2.1]heptan-2-yl]methyl}-phenyl]methyl]-1H-pyrazolo[4,3-d]pyrimidin-7-yl}amino)-3-cyclopropylpropan-1-ol]
10 | 0.0117 | 0.333 | CCC[C@@H](CCO)Nc1nc(N)nc2cnn(Cc3cnc(CN4C[C@@H]5C[C@H]4CN5C)cc3OC)c12 [Compound 131, (3S)-3-({5-amino-1-[(4-methoxy-6-{[(1S,4S)-5-methyl-2,5-diaza-bicyclo[2.2.1]heptan-2-yl]methyl}pyridin-3-yl)methyl]-1H-pyrazolo[4,3-d]pyrimidin-7-yl}amino)hexan-1-ol]
11 | 0.0106 | 0.0599 | CCC[C@@H](CCO)Nc1nc(N)nc2c(C)nn(Cc3ccc(CN4C[C@H]5C[C@@H]4CN5CCO)cc3OC)c12 [Compound 141, (3S)-3-({5-amino-1-[(4-{[(1R,4R)-5-(2-hydroxyethyl)-2,5-diazabicyclo [2.2.1]heptan-2-yl]methyl}-2-methoxyphenyl)methyl]-3-methyl-1H-pyrazolo[4,3-d]pyrimidin-7-yl}amino)hexan-1-ol]
12 | 0.0028 | 0.0899 | CCC[C@@H](CCO)Nc1nc(N)nc2cnn(Cc3cnc(CN4C[C@H]5CNC[C@H]5C4)cc3OC)c12 [Compound 133, (3S)-3-({1-[(6-{[(3aR,6aS)-octa-hydropyrrolo[3,4-c]pyrrol-2-yl]methyl}-4-methoxypyridin-3-yl)methyl]-5-amino-1H-pyrazolo[4,3-d]pyrimidin-7-yl}amino)hexan-1-ol]
13 | 0.0019 | 0.0196 | CCCCNc1nc(N)nc2cnn(Cc3ccc(CN4C[C@H]5CN(CCO)C[C@H]5C4)cc3OC)c12 [Compound 139, 2-[(3aR,6aS)-5-[(4-{[5-amino-7-(butylamino)-1H-pyrazolo[4,3-d]pyrimidin-1-yl]methyl}-3-methoxy-pheny)methyl]-octahydropyrrolo[3,4-c]pyrrol-2-yl]ethan-1-ol]
